We go through 33 compounds from patent US20230340012A1, “NATURAL AND SYNTHETIC COMPOUNDS FOR TREATING CANCER AND OTHER DISEASES” (PACIFIC ARROW LIMITED, priority 2009, published 2023).

The subject of this data set is cancer cells. Put plainly: MTT cytotoxic assay of esterification products (Cytotoxicity activity). The format is cell-based, human. As to conditions: MTT cytotoxic assay, isolated esterification products of E4A. From the text: The peaks, fractions and compounds are selected according to the activities of times studies and the changes of peaks. Selecting the HPLC fractions for isolation is according to the cytotoxic activity of the reaction product obtained at a specific time. The compounds having strong to weak activities are selected and isolated. Selecting the HPLC fractions for isolation may be according to the cytotoxic activity of times studies and the change of peaks. The anti-cancer activities are the MTT studies of bone (U2OS), lung (H460), bladder (HTB-9), ovary (ES2), colon (HCT116), pancreas (Capan), ovary(OVCAR3), prostate (DU145), skin (SK-Mel-5), mouth (KB), kidney (A498), breast (MCF-7), liver (HepG2), brain (T98G), leukemia (K562), cervix (HeLa).
Esterification of compound (A), (B), (C), (D1), (D2), (E), (F), (G), (H1), (H2), E4A, E4A2Y, (P1), P(2), terpene, isoprene, triterpenes, hydroxylated triterpenes, with acyl halide, wherein the halide comprise chloride, bromide, fluoride and iodide, wherein the acyl halide comprise acyl chloride, wherein acyl chloride comprise tigloyl chloride, angeloyl chloride, acetyl chloride, crotonoyl chloride, 3,3-Dimethylacryloyl chloride, senecioyl chloride, cinnamoyl chloride, pentenoyl chloride, hexanoyl chloride, benzoyl chloride, ethylbutyryl chloride, propionyl chloride, 2-propenoyl chloride, isobutyryl chloride, butyryl chloride, (2E)-2-pentenoyl chloride, 4-Pentenoyl chloride, 5-hexenoyl chloride, heptanoyl chloride, octanoyl chloride, nonanoyl chloride, decanoyl chloride, Lauroyl chloride, myristoyl chloride, oleoyl chloride. The compounds vary in composition when the time or temperature of the reaction is changed. The peaks, fractions and compounds are selected according to the activities of times studies and the changes of peaks. The compounds having strong to weak activities are selected and isolated. The anti-cancer activities (Cytotoxic Assay) are the MTT studies of bone (U2OS), lung (H460), bladder(HTB-9), ovary (ES2), colon (HCT116), pancreas (Capan), ovary(OVCAR3), prostate (DU145), skin (SK-Mel-5), mouth (KB), kidney (A498), breast (MCF-7), liver (HepG2), brain (T98G), leukemia (K562), cervix (HeLa). The active esterification products are purified with HPLC. The reaction product of mixtures and individual compounds are tested with MTT Cytotoxic Assay. Details of method are in Experiment 3 of the present application. A second esterification of compound can be selected from the above experiment results to produce new active compounds. A partial esterification compound is selected from the above experiments to perform a second or repeated with a third esterification with different acyl chloride in order to produce new active compounds with the experiments in the present application.
Method: 40 mg of triterpene core (fraction IV) was dissolved in 1 ml pyridine in a 50 ml tube. Reaction is started by adding 0.2 ml of acyl chloride (Tigloyl chloride, angeloyl chloride, Acetyl chloride, Crotonoyl chloride, 3,3-Dimethylacryloyl chloride(senecioyl chloride), Cinnamoyl chloride, Pentenoyl chloride, Hexanoyl chloride, benzoyl chloride or Ethylbutyryl chloride). The mixture is stirred for 5 sec, 1 min, 2 min, 5 min, 10 min, 30 min, 1 hr, 2 hr, 18 hr, 2 days or 3 days at 0° C., 25° C. or 75° C. temperature. At the end of reaction, 5 ml of 2N HCl or 1 M NaHCO3 is added to the reaction mixture. The solution is then extracted 3 times with 10 ml of ethyl acetate which is then evaporated under vacuum and at 45C and lyophilization. The reaction product is dissolved in 80% acetonitrile - 0.005% Trifluoroacetic acid or DMSO; and was separated with HPLC. Selecting the HPLC fractions for isolation is according to the cytotoxic activity of the reaction product obtained at a specific reaction time. The active esterification products are purified with HPLC. The reaction product of mixtures and individual compounds are tested with MTT cytotoxic assay. Structures are determined with NMR. […]

For the compound `C=CCCC(=O)OCC1(C)C(O)CCC2(C)C1CCC1(C)C2CC=C2C3CC(C)(C)C(O)C(O)C3(COC(=O)CCC=C)C(O)CC21C` (stereo not drawn) [Compound C3], the Cytotoxicity activity result is “strong”.

Turning to `C=CCCC(=O)OCC1(C)C(O)CCC2(C)C1CCC1(C)C2CC=C2C3CC(C)(C)C(OC(=O)CCC=C)C(O)C3(COC(=O)CCC=C)C(O)CC21C` (stereo not drawn) [Compound C4], the Cytotoxicity activity entry is “moderate”.

For `C=CCCC(=O)OCC1(C)C(O)CCC2(C)C1CCC1(C)C2CC=C2C3CC(C)(C)C(O)C(OC(=O)CCC=C)C3(COC(=O)CCC=C)C(O)CC21C` (stereo not drawn) [Compound C5], the Cytotoxicity activity result is “moderate”. Consider `C=CCCC(=O)OCC1(C)C(OC(=O)CCC=C)CCC2(C)C1CCC1(C)C2CC=C2C3CC(C)(C)C(O)C(O)C3(COC(=O)CCC=C)C(O)CC21C` (stereo not drawn) [Compound C6], for which the Cytotoxicity activity result is recorded as “moderate”. In the case of `C=CCCC(=O)OCC1(C)C(O)CCC2(C)C1CCC1(C)C2CC=C2C3CC(C)(C)C(O)C(O)C3(COC(=O)CCC=C)C(OC(=O)CCC=C)CC21C` (stereo not drawn) [Compound C7], the Cytotoxicity activity result is listed as “moderate”. Regarding `C=CCCC(=O)OCC1(C)C(O)CCC2(C)C1CCC1(C)C2CC=C2C3CC(C)(C)C(OC(=O)CCC=C)C(OC(=O)CCC=C)C3(COC(=O)CCC=C)C(O)CC21C` (stereo not drawn) [Compound C8], the Cytotoxicity activity entry was “weak”.

As to `C=CCCC(=O)OCC1(C)C(OC(=O)CCC=C)CCC2(C)C1CCC1(C)C2CC=C2C3CC(C)(C)C(O)C(OC(=O)CCC=C)C3(COC(=O)CCC=C)C(O)CC21C` (stereo not drawn) [Compound C9], the Cytotoxicity activity entry is on record as “weak”. The result for `C=CCCC(=O)OCC1(C)C(OC(=O)CCC=C)CCC2(C)C1CCC1(C)C2CC=C2C3CC(C)(C)C(O)C(O)C3(COC(=O)CCC=C)C(OC(=O)CCC=C)CC21C` (stereo not drawn) [Compound C10] reads “weak”. The result for `C=CCCC(=O)OCC1(C)C(OC(=O)CCC=C)CCC2(C)C1CCC1(C)C2CC=C2C3CC(C)(C)C(OC(=O)CCC=C)C(O)C3(COC(=O)CCC=C)C(O)CC21C` (stereo not drawn) [Compound C11] reads “weak”; that for `C=CCCC(=O)OCC1(C)C(O)CCC2(C)C1CCC1(C)C2CC=C2C3CC(C)(C)C(O)C(OC(=O)CCC=C)C3(COC(=O)CCC=C)C(OC(=O)CCC=C)CC21C` (stereo not drawn) [Compound C12], “weak”. With `C=CCCC(=O)OCC1(C)C(O)CCC2(C)C1CCC1(C)C2CC=C2C3CC(C)(C)C(OC(=O)CCC=C)C(O)C3(COC(=O)CCC=C)C(OC(=O)CCC=C)CC21C` (stereo not drawn) [Compound C13] the entry was “weak”; with `C=CCCC(=O)OCC1(C)C(OC(=O)CCC=C)CCC2(C)C1CCC1(C)C2CC=C2C3CC(C)(C)C(O)C(OC(=O)CCC=C)C3(COC(=O)CCC=C)C(O)CC21C` (stereo not drawn) [Compound C14], “weak”; with `C=CCCC(=O)OCC1(C)C(OC(=O)CCC=C)CCC2(C)C1CCC1(C)C2CC=C2C3CC(C)(C)C(OC(=O)CCC=C)C(OC(=O)CCC=C)C3(COC(=O)CCC=C)C(O)CC21C` (stereo not drawn) [Compound C15], “weak”. For the compound `C=CCCC(=O)OCC1(C)C(O)CCC2(C)C1CCC1(C)C2CC=C2C3CC(C)(C)C(OC(=O)CCC=C)C(OC(=O)CCC=C)C3(COC(=O)CCC=C)C(OC(=O)CCC=C)CC21C` (stereo not drawn) [Compound C16], the Cytotoxicity activity entry is reported as “weak”.

On to `C=CCCC(=O)OCC1(C)C(OC(=O)CCC=C)CCC2(C)C1CCC1(C)C2CC=C2C3CC(C)(C)C(OC(=O)CCC=C)C(O)C3(COC(=O)CCC=C)C(OC(=O)CCC=C)CC21C` (stereo not drawn) [Compound C17], for which the Cytotoxicity activity entry is “weak”.

Regarding `C=CCCC(=O)OCC1(C)C(OC(=O)CCC=C)CCC2(C)C1CCC1(C)C2CC=C2C3CC(C)(C)C(O)C(OC(=O)CCC=C)C3(COC(=O)CCC=C)C(OC(=O)CCC=C)CC21C` (stereo not drawn) [Compound C18], the Cytotoxicity activity entry is recorded as “weak”. For the compound `C=CCCC(=O)OCC1(C)C(OC(=O)CCC=C)CCC2(C)C1CCC1(C)C2CC=C2C3CC(C)(C)C(OC(=O)CCC=C)C(OC(=O)CCC=C)C3(COC(=O)CCC=C)C(OC(=O)CCC=C)CC21C` (stereo not drawn) [Compound C19], the Cytotoxicity activity result is “none”. As for `C=CCCC(=O)OCC12C(O)CC3(C)C(=CCC4C5(C)CCC(O)C(C)(CO)C5CCC43C)C1CC(C)(C)C(OC(=O)CCC=C)C2OC(=O)CCC=C` (stereo not drawn) [Compound C20], the Cytotoxicity activity result is listed as “moderate”. As for `C=CCCC(=O)OCC1(C)C(O)CCC2(C)C1CCC1(C)C2CC=C2C3CC(C)(C)C(OC(=O)CCC=C)C(OC(=O)CCC=C)C3(CO)C(O)CC21C` (stereo not drawn) [Compound C21], the Cytotoxicity activity entry is on record as “moderate”. With `C=CCCC(=O)OC1C(OC(=O)CCC=C)C2(CO)C(OC(=O)CCC=C)CC3(C)C(=CCC4C5(C)CCC(O)C(C)(CO)C5CCC43C)C2CC1(C)C` (stereo not drawn) [Compound C22] the entry was “moderate”; with `C=CCCC(=O)OC1C(OC(=O)CCC=C)C2(CO)C(O)CC3(C)C(=CCC4C5(C)CCC(OC(=O)CCC=C)C(C)(CO)C5CCC43C)C2CC1(C)C` (stereo not drawn) [Compound C23], “moderate”. With `CCCCCC(=O)OC1C(OC(=O)CCCCC)C2(CO)C(OC(=O)CCCCC)CC3(C)C(=CCC4C5(C)CCC(O)C(C)(CO)C5CCC43C)C2CC1(C)C` (stereo not drawn) [Compound D22] the entry was “moderate”; with `CCCCCC(=O)OC1C(OC(=O)CCCCC)C2(CO)C(O)CC3(C)C(=CCC4C5(C)CCC(OC(=O)CCCCC)C(C)(CO)C5CCC43C)C2CC1(C)C` (stereo not drawn) [Compound D23], “moderate”; with `CCCCCC(=O)OC1C(OC(=O)CCCCC)C2(CO)C(O)CC3(C)C(=CCC4C5(C)CCC(O)C(C)(CO)C5CCC43C)C2CC1(C)C` (stereo not drawn) [Compound D24], “moderate”. Take `CCCCCC(=O)OCC12C(O)CC3(C)C(=CCC4C5(C)CCC(O)C(C)(CO)C5CCC43C)C1CC(C)(C)C(OC(=O)CCCCC)C2O` (stereo not drawn) [Compound D25]: the Cytotoxicity activity entry is “moderate”. On to `CCCCCC(=O)OCC12C(O)CC3(C)C(=CCC4C5(C)CCC(O)C(C)(CO)C5CCC43C)C1CC(C)(C)C(O)C2OC(=O)CCCCC` (stereo not drawn) [Compound D26], for which the Cytotoxicity activity result is “moderate”.

As for `CCCCCC(=O)OCC12C(O)CC3(C)C(=CCC4C5(C)CCC(OC(=O)CCCCC)C(C)(CO)C5CCC43C)C1CC(C)(C)C(O)C2O` (stereo not drawn) [Compound D27], the Cytotoxicity activity entry is reported as “moderate”. For `CCCCCC(=O)OCC12C(OC(=O)CCCCC)CC3(C)C(=CCC4C5(C)CCC(O)C(C)(CO)C5CCC43C)C1CC(C)(C)C(O)C2O` (stereo not drawn) [Compound D28], the Cytotoxicity activity result is reported as “moderate”. Consider `CCCCCC(=O)OCC1(C)C(O)CCC2(C)C1CCC1(C)C2CC=C2C3CC(C)(C)C(OC(=O)CCCCC)C(O)C3(CO)C(O)CC21C` (stereo not drawn) [Compound D29], for which the Cytotoxicity activity result is “moderate”. Turning to `CCCCCC(=O)OCC1(C)C(O)CCC2(C)C1CCC1(C)C2CC=C2C3CC(C)(C)C(O)C(OC(=O)CCCCC)C3(CO)C(O)CC21C` (stereo not drawn) [Compound D30], the Cytotoxicity activity entry is given as “moderate”. As for `CCCCCC(=O)OCC1(C)C(OC(=O)CCCCC)CCC2(C)C1CCC1(C)C2CC=C2C3CC(C)(C)C(O)C(O)C3(CO)C(O)CC21C` (stereo not drawn) [Compound D31], the Cytotoxicity activity result is on record as “moderate”. With `CCCCCC(=O)OCC1(C)C(O)CCC2(C)C1CCC1(C)C2CC=C2C3CC(C)(C)C(O)C(O)C3(CO)C(OC(=O)CCCCC)CC21C` (stereo not drawn) [Compound D32], the Cytotoxicity activity result is given as “moderate”. As for `CCC(CC)C(=O)OCC1(C)C(O)CCC2(C)C1CCC1(C)C2CC=C2C3CC(C)(C)C(O)C(O)C3(CO)C(O)CC21C` (stereo not drawn) [Compound E1], the Cytotoxicity activity entry is “moderate”.
